Measurements taken from the supplement of paper PMC11451515.

Experiments:
Conditions in all cases: 48 h
[1] = system: NOMO1; assay: cell viability relative to DMSO control; higher = less cytotoxic
Summary of the method: (§1)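 In 1536-well plates, 5 μl of leukemia cells were seeded per well: 500 cells/well for NOMO1 or SEM and 1000 cells/well for P12-Ichikawa. Each line had first been adapted for at least four passages in each medium. Library compounds in DMSO were pin-dosed at 11 threefold concentrations between 47 μM and 0.79 nM, and CellTiter-Glo One luminescence was read after 48 h at 37°C. Viability is a per-plate percentage relative to DMSO wells, with cell-free wells as background.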

[2] = system: P12-Ichikawa; assay: as above
Summary of the method: as §1

[3] = system: SEM cells; assay: as above
Summary of the method: as §1

[4] = system: NOMO1; assay: AUC of viability dose-response curve (% viability x log10 dose units); higher = less sensitive
Summary of the method: (§2)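 Leukemia cells adapted to each medium (500 or 1000 cells/well, 1536-well plates) were exposed to library compounds in DMSO for 48 h at 37°C at 11 threefold doses, 47 μM to 0.79 nM. Luminescence by CellTiter-Glo One was normalised per plate to DMSO and cell-free wells, then fitted with a four-parameter log-logistic curve on log10 dose. Curves above full viability were scaled and quality-control failures removed before area under the curve was integrated by trapezoidal rule.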

[5] = system: P12-Ichikawa; assay: as above
Summary of the method: as §2

[6] = system: SEM cells; assay: as above
Summary of the method: as §2

COc1cc2nccc(Oc3ccc(NC(=O)Nc4cc(C)on4)c(Cl)c3)c2cc1OC
cell viability [%]
Conditions | [1] | [2] | [3]
HPLM + 10% dialyzed FBS, 0.000781 µM | 113 | 121 | 112
HPLM + 10% dialyzed FBS, 0.00234 µM | 117 | 131 | 116
HPLM + 10% dialyzed FBS, 0.00702 µM | 117 | 115 | 107
HPLM + 10% dialyzed FBS, 0.0211 µM | 138 | 122 | 107
HPLM + 10% dialyzed FBS, 0.0632 µM | 108 | 122 | 114
HPLM + 10% dialyzed FBS, 0.19 µM | 116 | 115 | 102
HPLM + 10% dialyzed FBS, 0.569 µM | 121 | 126 | 100
HPLM + 10% dialyzed FBS, 1.71 µM | 130 | 119 | 71.2
HPLM + 10% dialyzed FBS, 5.12 µM | 115 | 107 | 64.1
HPLM + 10% dialyzed FBS, 15.4 µM | 129 | 113 | 59.9
HPLM + 10% dialyzed FBS, 46.1 µM | 87.8 | 40.5 | 33.1
RPMI 5 mM glucose + 10% FBS, 0.000781 µM | – | 124 | 86.4
RPMI 5 mM glucose + 10% FBS, 0.00234 µM | – | 121 | 85.2
RPMI 5 mM glucose + 10% FBS, 0.00702 µM | – | 114 | 79.9
RPMI 5 mM glucose + 10% FBS, 0.0211 µM | – | 129 | 74.3
RPMI 5 mM glucose + 10% FBS, 0.0632 µM | – | 118 | 82.1
RPMI 5 mM glucose + 10% FBS, 0.19 µM | – | 124 | 72.5
RPMI 5 mM glucose + 10% FBS, 0.569 µM | – | 120 | 73.9
RPMI 5 mM glucose + 10% FBS, 1.71 µM | – | 122 | 49.6
RPMI 5 mM glucose + 10% FBS, 5.12 µM | – | 110 | 33
RPMI 5 mM glucose + 10% FBS, 15.4 µM | – | 106 | 31.3
RPMI 5 mM glucose + 10% FBS, 46.1 µM | – | 36.7 | 14.1
RPMI 5 mM glucose + 10% dialyzed FBS, 0.000781 µM | 124 | – | 112
RPMI 5 mM glucose + 10% dialyzed FBS, 0.00234 µM | 124 | – | 125
RPMI 5 mM glucose + 10% dialyzed FBS, 0.00702 µM | 119 | – | 123
RPMI 5 mM glucose + 10% dialyzed FBS, 0.0211 µM | 114 | – | 107
RPMI 5 mM glucose + 10% dialyzed FBS, 0.0632 µM | 112 | – | 108
RPMI 5 mM glucose + 10% dialyzed FBS, 0.19 µM | 115 | – | 115
RPMI 5 mM glucose + 10% dialyzed FBS, 0.569 µM | 111 | – | 112
RPMI 5 mM glucose + 10% dialyzed FBS, 1.71 µM | 136 | – | 71.5
RPMI 5 mM glucose + 10% dialyzed FBS, 5.12 µM | 112 | – | 61.3
RPMI 5 mM glucose + 10% dialyzed FBS, 15.4 µM | 120 | – | 43
RPMI 5 mM glucose + 10% dialyzed FBS, 46.1 µM | 70.9 | – | 20.1

AUC of viability dose-response curve
Conditions | HPLM + 10% dialyzed FBS | RPMI 5 mM glucose + 10% FBS | RPMI 5 mM glucose + 10% dialyzed FBS
[4] | 471 | 449 | 467
[5] | 458 | 453 | 455

CC(C)OC(=O)CCC/C=C\C[C@@H]1[C@@H](/C=C/[C@@H](O)COc2cccc(C(F)(F)F)c2)[C@H](O)C[C@@H]1O
cell viability [%]
Conditions | [2] | [3]
HPLM + 10% dialyzed FBS, 0.000781 µM | 109 | 65.4
HPLM + 10% dialyzed FBS, 0.00234 µM | 120 | 124
HPLM + 10% dialyzed FBS, 0.00702 µM | 122 | 115
HPLM + 10% dialyzed FBS, 0.0211 µM | 127 | 118
HPLM + 10% dialyzed FBS, 0.0632 µM | 115 | 118
HPLM + 10% dialyzed FBS, 0.19 µM | 119 | 118
HPLM + 10% dialyzed FBS, 0.569 µM | 118 | 121
HPLM + 10% dialyzed FBS, 1.71 µM | 115 | 122
HPLM + 10% dialyzed FBS, 5.12 µM | 112 | 106
HPLM + 10% dialyzed FBS, 15.4 µM | 104 | 102
HPLM + 10% dialyzed FBS, 46.1 µM | 65.1 | 31.7
RPMI 5 mM glucose + 10% dialyzed FBS, 0.000781 µM | 112 | –
RPMI 5 mM glucose + 10% dialyzed FBS, 0.00234 µM | 126 | –
RPMI 5 mM glucose + 10% dialyzed FBS, 0.00702 µM | 120 | –
RPMI 5 mM glucose + 10% dialyzed FBS, 0.0211 µM | 121 | –
RPMI 5 mM glucose + 10% dialyzed FBS, 0.0632 µM | 127 | –
RPMI 5 mM glucose + 10% dialyzed FBS, 0.19 µM | 123 | –
RPMI 5 mM glucose + 10% dialyzed FBS, 0.569 µM | 124 | –
RPMI 5 mM glucose + 10% dialyzed FBS, 1.71 µM | 119 | –
RPMI 5 mM glucose + 10% dialyzed FBS, 5.12 µM | 110 | –
RPMI 5 mM glucose + 10% dialyzed FBS, 15.4 µM | 92.7 | –
RPMI 5 mM glucose + 10% dialyzed FBS, 46.1 µM | 46.1 | –

AUC of viability dose-response curve
Conditions | [4] | [5] | [6]
HPLM + 10% dialyzed FBS | 443 | 459 | 455
RPMI 5 mM glucose + 10% FBS | 448 | 439 | 452
RPMI 5 mM glucose + 10% dialyzed FBS | 450 | 446 | 434

CN1C(=O)C(Cc2c[nH]c3ccccc23)NC1=S (centres undefined)
AUC of viability dose-response curve
Conditions | [4] | [5] | [6]
HPLM + 10% dialyzed FBS | 467 | 458 | 437
RPMI 5 mM glucose + 10% FBS | 448 | 450 | 405
RPMI 5 mM glucose + 10% dialyzed FBS | 451 | 461 | 422
